# System: LPS-induced PGE2 release
# Test: Ex vivo LPS-induced PGE2 release in whole blood, single ascending oral doses (Example 1, Part 1a)
# Set-up: species or system human
# Details: for EAUC0-24 h, Difference in LS mean versus placebo / EAUC0-24 h, LS mean / EAUC0-336 h, Difference in LS mean versus placebo / EAUC0-336 h, LS mean / ETmax (time to reach maximum effect), Median / ETmax, Median difference versus placebo / Epeak (maximum % inhibition), LS mean / Epeak, Difference in LS mean versus placebo: fasted healthy subjects
# Description: In Part 1a, single doses of Compound I of 10 mg (Group A), 30 mg (Group B), 100 mg (Group C), 250 mg (Group D), 500 mg (Group E) and 1000 mg (Group F) were administered after fasting. In each dose group, 6 subjects received Compound I and 2 subjects received placebo.
# In Parts 1a and 3, whole blood samples were incubated and analyzed for lipopolysaccharide (LPS)-induced prostaglandin PGE2 release. In Part 3, urine samples were collected for analysis of prostanoid metabolites.
# Summary statistics were presented for the PK, pharmacodynamic (PD) and safety data, as appropriate. PK parameters following single oral doses of Compound I were determined from the plasma concentrations of Compound I using non-compartmental procedures in WinNonlin Dose proportionality was assessed using a power model, with tmax analyzed using the Kruskal-Wallis test. The effect of food on PK was assessed at the 100 and 250 mg doses using a mixed effects model. The effect of age on PK was assessed for elderly (>65 years) versus non-elderly (<65 years) at the 250 mg dose level in Parts 1a and 2, using an analysis of variance (ANOVA) with age as a fixed effect. For PD analyses, percent decrease of ex vivo LPS-induced PGE2 release was calculated. For Part 3, urinary excretion of prostanoid metabolites was also evaluated. The data are presented as absolute, as well as creatinine normalized urinary biomarker amounts, along percent change from baseline over a definite time interval. The percent change from baseline in urinary biomarkers was assessed using an analysis of covariance (ANCOVA) model
# Percent change in ex vivo LPS-induced PGE2 release in whole blood is the pharmacodynamic (PD) biomarker. The PGE2 levels in whole blood were estimated using the homogeneous time-resolved fluorescence method.
# Concentrations below the limit of quantification were treated as ½ the lower limit of quantification for calculation.
# Time points where unstimulated PGE2 concentration was more than 3 times greater than the mean unstimulated PGE2 and equal to or greater than ½ baseline value for an individual subject were not included in the calculation of percent inhibition. If pre-dose LPS-induced PGE2 was less than unstimulated PGE2, the value was not used for calculation of percent inhibition.
smiles,measurement,setting,value
"CC(C)(C)C(=O)NCc1ccc(Cl)c(-c2nn(-c3ccc(C(F)(F)F)cc3)c(=O)[nH]2)c1 [Compound I, N-(4-chloro-3-(5-oxo-1-(4-(trifluoromethyl)phenyl)-4,5-dihydro-1H-1,2,4-triazol-3-yl)benzyl)pivalamide]",persistence of inhibition,1000 mg single dose,still apparent at 336 hours
same,time for which near maximal inhibition was retained,250 and 500 mg single doses,at least 168 hours
same,time for which reduction in PGE2 release was apparent,"lower doses, post-dose",approximately 24 hours
same,"EAUC0-24 h, Difference in LS mean versus placebo",single oral dose 10 mg,956 % · h
same,"EAUC0-24 h, LS mean",single oral dose 10 mg,898 % · h
same,"EAUC0-336 h, Difference in LS mean versus placebo",single oral dose 10 mg,−5321 % · h
same,"EAUC0-336 h, LS mean",single oral dose 10 mg,−3824 % · h
same,"ETmax (time to reach maximum effect), Median",single oral dose 10 mg,4.00 h
same,"ETmax, Median difference versus placebo",single oral dose 10 mg,-8.02 h
same,"Epeak (maximum % inhibition), LS mean",single oral dose 10 mg,77.7%
same,"Epeak, Difference in LS mean versus placebo",single oral dose 10 mg,9.90%
same,"EAUC0-24 h, Difference in LS mean versus placebo",single oral dose 30 mg,1028 % · h
same,"EAUC0-24 h, LS mean",single oral dose 30 mg,970 % · h
same,"EAUC0-336 h, Difference in LS mean versus placebo",single oral dose 30 mg,7240 % · h
same,"EAUC0-336 h, LS mean",single oral dose 30 mg,8736 % · h
same,"ETmax (time to reach maximum effect), Median",single oral dose 30 mg,3.04 h
same,"ETmax, Median difference versus placebo",single oral dose 30 mg,-8.98 h
same,"Epeak (maximum % inhibition), LS mean",single oral dose 30 mg,72.8%
same,"Epeak, Difference in LS mean versus placebo",single oral dose 30 mg,4.94%
same,"EAUC0-24 h, Difference in LS mean versus placebo",single oral dose 100 mg,1709 % · h
same,"EAUC0-24 h, LS mean",single oral dose 100 mg,1650 % · h
same,"EAUC0-336 h, Difference in LS mean versus placebo",single oral dose 100 mg,10115 % · h
same,"EAUC0-336 h, LS mean",single oral dose 100 mg,11612 % · h
same,"ETmax (time to reach maximum effect), Median",single oral dose 100 mg,7.02 h
same,"ETmax, Median difference versus placebo",single oral dose 100 mg,-7.50 h
same,"Epeak (maximum % inhibition), LS mean",single oral dose 100 mg,91.6%
same,"Epeak, Difference in LS mean versus placebo",single oral dose 100 mg,23.8%
same,"EAUC0-24 h, Difference in LS mean versus placebo",single oral dose 250 mg,1608 % · h
same,"EAUC0-24 h, LS mean",single oral dose 250 mg,1550 % · h
same,"EAUC0-336 h, Difference in LS mean versus placebo",single oral dose 250 mg,12965 % · h
same,"EAUC0-336 h, LS mean",single oral dose 250 mg,14461 % · h
same,"ETmax (time to reach maximum effect), Median",single oral dose 250 mg,2.03 h
same,"ETmax, Median difference versus placebo",single oral dose 250 mg,-9.94 h
same,"Epeak (maximum % inhibition), LS mean",single oral dose 250 mg,92.8%
same,"Epeak, Difference in LS mean versus placebo",single oral dose 250 mg,24.9%
same,"EAUC0-24 h, Difference in LS mean versus placebo",single oral dose 500 mg,1766 % · h
same,"EAUC0-24 h, LS mean",single oral dose 500 mg,1707 % · h
same,"EAUC0-336 h, Difference in LS mean versus placebo",single oral dose 500 mg,16417 % · h
same,"EAUC0-336 h, LS mean",single oral dose 500 mg,17914 % · h
same,"ETmax (time to reach maximum effect), Median",single oral dose 500 mg,12.0 h
same,"ETmax, Median difference versus placebo",single oral dose 500 mg,-0.0333 h
same,"Epeak (maximum % inhibition), LS mean",single oral dose 500 mg,87.7%
same,"Epeak, Difference in LS mean versus placebo",single oral dose 500 mg,19.9%
same,"EAUC0-24 h, Difference in LS mean versus placebo",single oral dose 1000 mg,1086 % · h
same,"EAUC0-24 h, LS mean",single oral dose 1000 mg,1028 % · h
same,"EAUC0-336 h, Difference in LS mean versus placebo",single oral dose 1000 mg,17780 % · h
same,"EAUC0-336 h, LS mean",single oral dose 1000 mg,19277 % · h
same,"ETmax (time to reach maximum effect), Median",single oral dose 1000 mg,144 h
same,"ETmax, Median difference versus placebo",single oral dose 1000 mg,112 h
same,"Epeak (maximum % inhibition), LS mean",single oral dose 1000 mg,81.8%
same,"Epeak, Difference in LS mean versus placebo",single oral dose 1000 mg,14.0%
same,inhibition of ex vivo LPS-induced PGE2 release (in words),single oral doses from 10 mg to 1000 mg,marked dose-dependent inhibition

# From patent publication US10758517B2, “mPGES-1 inhibitor for the treatment of osteoarthritis pain” (Glenmark Pharmaceuticals S.A., priority 2017, dated 2020)
